We go through 38 molecules from ChEMBL document CHEMBL3507680, “University of Dundee, Gates Library screen for HepG2 cell viability”.

Molecules are shown by their SMILES.

A short description of the data set: Human HepG2 cell viability assay in 384 well format. The class given is toxicity, cell-based. More on the design: dose 125 nL, time 70.5 hour; concentration not given beside the values. Conditions: HepG2 cells, read-out: Inhibition.
As for `O=C(c1ccccc1N1CCOCC1)N1CCCC(n2ccnc2)C1` (stereo not drawn), the cytotoxicity at 70.5 h was -6.72%.

On to `COCC1CC2(CCN(Cc3ccccn3)CC2)CN1c1ncccn1` (stereo not drawn), for which the cytotoxicity at 70.5 h was found to be 0.787%.

With `CC(C)n1nc2c(cc1=O)CN(CC1CCCCO1)CC2` (stereo not drawn), the cytotoxicity at 70.5 h is -5.1%.

`CCOc1ccc(CN(CCOC)c2nc(C)nc3oc(C)nc23)cc1`: the cytotoxicity at 70.5 h was -12.6%.

For `CCc1nnc(Nc2cc(C)nc(C3CCN(c4ccncn4)C3)n2)s1` (stereo not drawn), the cytotoxicity at 70.5 h was 12.4%.

With `c1cn(Cc2nnc(C3CCN(C4CCCCC4)CC3)n2C2CC2)cn1`, the cytotoxicity at 70.5 h was -1.01%.

In the case of `CN(CCc1ccccn1)C(=O)Nc1cc(C(F)(F)F)c[nH]c1=O`, the cytotoxicity at 70.5 h is 8.07%.

As to `CCn1nc(C)cc1C(=O)N1CC[C@H](OC)[C@H]2CN(CC3CC3)C[C@H]21`, the cytotoxicity at 70.5 h is 7.23%.

Turning to `Cc1ccccc1[C@@H]1CN(Cc2c(C)noc2C)C[C@H]1C(=O)O`, the cytotoxicity at 70.5 h was 21.7%.

Consider `O=S(=O)(c1ccc(F)cc1)N1CCOC[C@H](Oc2cnccn2)C1`, for which the cytotoxicity at 70.5 h is 12.5%.

Turning to `CS(=O)(=O)NCc1cc2n(n1)CCCN(Cc1ccc(Cl)s1)C2`, the cytotoxicity at 70.5 h is -9.1%.

Regarding `COCC(=O)N[C@H](C)c1onc(-c2ccc(OC)cc2)c1C(=O)O`, the cytotoxicity at 70.5 h came to 10.8%.

In the case of `Cc1nc(C)n(CC2CN(Cc3cccnc3)Cc3nccn3C2)n1` (stereo not drawn), the cytotoxicity at 70.5 h is -1.38%.

Take `Cc1cccc(CN2CCC3(CCCN(Cc4cnn(C)c4)C3)C2)n1` (stereo not drawn): the cytotoxicity at 70.5 h is -14%.

As to `CCN(CCc1nc2cc(C)ccc2[nH]1)C(=O)[C@@H](N)CCSC`, the cytotoxicity at 70.5 h is -4.38%.

Take `Cc1ccc(C(=O)N2CCCCC2c2[nH]ncc2S(C)(=O)=O)s1` (stereo not drawn): the cytotoxicity at 70.5 h was 12.5%.

With `CC(=O)N1CCC2(CC1)CN(C(=O)c1ccc3c(c1)OCCO3)C2`, the cytotoxicity at 70.5 h was 5.66%.

On to `COc1ccc(COCC(O)CN2CCC(c3ccn[nH]3)CC2)cc1` (stereo not drawn), for which the cytotoxicity at 70.5 h is -8.27%.

As to `COC(=O)C1CCCCN1C(=O)c1cn(C/C=C/c2ccccc2)nn1` (stereo not drawn), the cytotoxicity at 70.5 h stood at 23.4%.

Consider `O=C1CC(c2ccccc2)C2(CCN(CC3CC3)CC2)N1` (stereo not drawn), for which the cytotoxicity at 70.5 h was -5.14%.

On to `Cc1cc(C(=O)N2CCc3c(ncnc3N3CCOCC3)C2)[nH]n1`, for which the cytotoxicity at 70.5 h is -1.64%.

`COc1ccnc(N2CCC3(CCCN(CC4CC4)C3=O)C2)n1` (stereo not drawn): the cytotoxicity at 70.5 h is -6.47%.

On to `O=C1C(NCc2nnc3n2CCCC3)CCN1c1ccccc1Cl` (stereo not drawn), for which the cytotoxicity at 70.5 h worked out at 9.28%.

For the molecule `O=C(c1cscn1)N1CC[C@H]2C[C@H](c3nnc(C4CC4)o3)O[C@@H]2C1`, the cytotoxicity at 70.5 h is -10.6%.

In the case of `NC(=O)c1cc(C2CCCN(C(=O)CCc3ccccn3)C2)n[nH]1` (stereo not drawn), the cytotoxicity at 70.5 h was -3.73%.

Regarding `c1ccc2nc(N3CCOC(Cn4cccn4)C3)cnc2c1` (stereo not drawn), the cytotoxicity at 70.5 h is -11.7%.

Take `Cc1cc(CNC(=O)NC(C)c2ccc(N3CCOCC3)cc2)no1` (stereo not drawn): the cytotoxicity at 70.5 h was -5.55%.

Take `CCCc1ccc(CN2CCC3(CCC(=O)N(CCO)C3)CC2)o1`: the cytotoxicity at 70.5 h was -3.93%.

Consider `CC(Cn1cccn1)NC(=O)NCCCN1CCc2ccccc2C1` (stereo not drawn), for which the cytotoxicity at 70.5 h is 14.2%.

In the case of `c1ccc(C2CCCN(Cc3cc4n(n3)CCNC4)CC2)cc1` (stereo not drawn), the cytotoxicity at 70.5 h was -6.51%.

Regarding `CN1CCCCC1c1ncc2c(n1)CCN(CCCc1ccccc1)C2` (stereo not drawn), the cytotoxicity at 70.5 h stood at 16.2%.

Turning to `COc1ccc(C(=O)N2Cc3cc(C)ccc3OCC2CN(C)C)cc1` (stereo not drawn), the cytotoxicity at 70.5 h was found to be 3.28%.

As to `COc1c(CNC(c2ccc(F)cc2)C(C)(C)C)c(C)nn1C` (stereo not drawn), the cytotoxicity at 70.5 h stood at 3.66%.

Turning to `COc1cccc(Cc2nnc(SCCS(C)(=O)=O)o2)c1`, the cytotoxicity at 70.5 h is -8.26%.

As to `Cc1ccc(CCC(=O)N2CCOCC2)cc1Cl`, the cytotoxicity at 70.5 h is -6.51%.

For `Cc1cc(CN2CCN(C(C)C)C(CCO)C2)[nH]n1` (stereo not drawn), the cytotoxicity at 70.5 h stood at 9.92%.

Regarding `CCOC(=O)NC1CCCN(c2cncc(Br)c2)C1` (stereo not drawn), the cytotoxicity at 70.5 h turned out to be 0.767%.

As to `COc1ccc(C)cc1NC(=O)Nc1cnc(N2CCN(C)CC2)nc1`, the cytotoxicity at 70.5 h was determined as 16.2%.
